Laboratory results as given in patent US4565805A, “Pharmaceutical preparation for the treatment of peptic ulcer” (priority 1984, dated 1986).
Like-named read-outs stand apart in the source and are kept apart here.

Tests used:
[1] = system: patients suffering from duodenal peptic ulcer
Method: The preparation was tested in clinic on 40 patients suffering from duodenal peptic ulcer. The control groups consisted of 20 patients treated with cymethidin in the daily dose of 800 mg. Only male patients were subjected to the treatment, their age varied from 22 to 56 years. The duration of the disease was different: from newly detected ulcer to 28 years of the disease. The diagnosis of the peptic ulcer was made on the basis of generally accepted clinical tests with an obligatory use of the gastroduodenoscopy. The gastroduodenoscopy was carried out prior to administration of the preparation and 14, 21 and 28 days thereafter (the two latter endoscopy were carried out only in the use of non-scarring ulcers).
The preparation was administered intramuscularly in a dose of 10-15 μg/kg in a 0.9% aqueous solution of sodium chloride twice a day (in the moring at 7 a.m. and in the evening at 19 p.m.). The treatment course was 14-28 days, the course dose of the preparation was 30-60 mg. Apart from the preparation, the patients were given no additional pharmaceuticals, antacids were also excluded.

[2] = system: experimental duodenal ulcers (cystamine) in rats; conditions: preparation 12 μg/kg twice a day, cymethidin 7 mg/kg a day
Method: 170 rats were used. […] The animals of the control group were injected with a physiological solution. The slaughter of the animals was effected in groups of 10 animals within different periods after the beginning of the experiment.

`CN/C(=N\CCSCc1nc[nH]c1C)NC#N` [cymethidin] was tested. Which “patients with pains still noted” value ([1]; by the end of the 2-nd week, cymethidin 800 mg daily) did it give?
Its value is 35%.

And the “patients with healed ulcer” value ([1]; by the end of the 3-rd week, preparation 10-15 μg/kg i.m. twice a day, cymethidin 200 mg 4 times a day)?
Its value is 65%.

And the ulcer index ([2]; 24 hrs, control 3.1)?
Its ulcer index is 1.6.

And the ulcer index ([2]; 48 hrs, control 3.3)?
The ulcer index was 1.6.

And the ulcer index ([2]; 72 hrs, control 3.2)?
The ulcer index was 1.5.

What about the ulcer index ([2]; 7 ds, control 1.8) of the same compound?
Its ulcer index is 0.8.

What about the ulcer index ([2]; 14 ds, control 1.2) of the same compound?
The ulcer index was 0.

And the “time of complete healing of ulcers” value [2]?
The value was “by the end of the second week”.
